Results: US20220098215A1, “DUOCARMYCIN ANALOGUES” (AUCKLAND UNISERVICES LIMITED, priority 2019, published 2022)
Entries after “also recorded” stand apart in the source; their conditions may differ. Read-outs that look alike come from different tables or passages of the source.

Legend:
[1] = Calculated lipophilicity, ChemDraw Professional; conditions: Table 3; difference CBI minus MBO, same side chain
Description: The lipophilicity was calculated for the representative compounds of the invention using the ChemDraw Professional v.17.0.0 software package (Perkin Elmer Informatics Inc).
(§1) Lipophilicity of small molecule compounds can be calculated in many different ways (reviewed for example in J. Pharm. Sci. (2009) 98, 861). To complement the data provided in Example 6 the calculated lipophilicity of several compounds of the present invention was compared to that of the seco-CBI analogues bearing the same minor groove binding side chain, using four different software packages, i.e. ChemDraw Professional (Perkin Elmer Informatics Inc) as in Example 6, ACD/log P (Advanced Chemistry Development), XLOGP3 (Shanghai Institute of Organic Chemistry), and MLOGP (Talete SRL, Milano, Italy), with the last three accessed via SwissADME (http://swissadme.ch/, Swiss Institute of Bioinformatics). The structures of the compounds are shown (where DNA binding units A, D, E and F, when attached to the 2-methylbenzoxazole alkylating subunit, represent compounds 23, 59, 66 and 74, respectively) and the calculated log P values are collected in Table 3.

[2] = tested on: ovarian carcinoma SKOV3; experiment: Cytotoxicity: inhibition of proliferation, sulforhodamine B staining; format: cell-based, human; conditions: for IC50: Homo sapiens; for differential cytotoxic potency between enantiomers 82 and 83: SKOV3
Description: (§2) The cytotoxicity of the payloads of the invention was determined by measuring the inhibition of proliferation of two human tumour cell lines, the cervical carcinoma SiHa, and the ovarian carcinoma SKOV3. Log-phase monolayers were exposed continuously to the payloads for 5 days in 96-well plates, followed by sulforhodamine B staining. The IC50 was determined by interpolation as the drug concentration required to inhibit cell density to 50% of that of the untreated controls on the same plate. Every plate contained the reference compound seco-CBI-TMI as an internal control.
(§3) The cytotoxicity of the payloads of the invention was determined by measuring the inhibition of proliferation of two human tumour cell lines, the cervical carcinoma SiHa, and the ovarian carcinoma SKOV3, following the general procedure described in Example 7. In the new determinations the stock solution of payload in DMSO was diluted in series prior to addition to the cell-containing wells of the 96-well plate. The cytotoxicity determinations were repeated several times (n=3-7 depending on compound and cell line) and the results are collected in Table 4.

[3] = tested on: cervical carcinoma SiHa; experiment: as above; format: cell-based, human; conditions: for IC50: Homo sapiens
Description: as §2, §3

[4] = Calculated lipophilicity, ACD/log P; conditions: Table 3; difference CBI minus MBO, same side chain
Source text: as §1

[5] = Aqueous stability in neutral buffer (LC-MS / HPLC); format: physicochemical; conditions: 4 μM in Tris buffer (pH 7.4) containing 10% DMF at 37° C., monitored over 300-500 min
Description: The aqueous stability of 23 and reference compound seco-CBI-TMI was investigated by LC-MS analysis. Samples containing the payloads at a concentration of 4 μM in Tris buffer (pH 7.4) containing 10% DMF at 37° C. were monitored at regular intervals over 300-500 min.
The aqueous stability of compounds 52, 59 and 66 was investigated by HPLC analysis. The conditions were the same as those described in Example 8, i.e. samples contained the payloads at a concentration of 4 μM in Tris buffer (pH 7.4) containing 10% DMF at 37° C. In this experiment the solutions were monitored at hourly intervals over 8 h.

[6] = Bioorg. Med. Chem. Lett. (2010) 20, 1854; cited from earlier work
[7] = SK-OV-3, 120 h, Example 7, Table 2, continuous exposure 5 days, 96-well plates, read-out: IC50 SKOV3
[8] = SK-OV-3, Example 25, Table 4, DMSO stock diluted in series before addition, n=3-7, read-out: IC50 SKOV3 Average

Molecule `Cc1nc2c3c(cc(O)c2o1)N(C(=O)OC(C)(C)C)CC3CCl` (stereo not shown) has a melting point of 234 to 238 °C.
Molecule `Cc1nc2c3c(cc(OCc4ccccc4)c2o1)N(C(=O)OC(C)(C)C)CC3CCl` (stereo not shown) has a melting point of 142 to 143 °C.
Work on `COc1cc2cc(C(=O)N3CC(CCl)c4c3cc(OCc3ccccc3)c3oc(C)nc43)[nH]c2c(OC)c1OC` (stereo not shown) yielded a melting point of 225 to 227 °C.
With `COc1cc2cc(C(=O)N3CC(CCl)c4c3cc(O)c3oc(C)nc43)[nH]c2c(OC)c1OC` (stereo not shown) [Compound 23, (8-(Chloromethyl)-4-hydroxy-2-methyl-7,8-dihydro-6H-oxazolo[4,5-e]indol-6-yl)(5,6,7-trimethoxy-1H-indol-2-yl)methanone] the “LogP ChemDraw Δ” value [1] was 1.48, the IC50 [2, 7] was 0.54 nM and the IC50 [2, 8] was 0.32 nM. The IC50 ([3]; 120 h, read-out: IC50 SiHa) was 0.28 nM, the IC50 ([3]; read-out: IC50 SiHa Average) was 0.18 nM and the “LogP ACD Δ” value [4] was 1.67. For the same molecule, the “aqueous stability (LC-MS)” value [5] was “not stable under these conditions and was rapidly converted to a variety of products”.
For `Cc1nc2c3c(cc(O)c2o1)N(C(=O)c1cc2cc(NC(=O)c4cc5cc(OCCN(C)C)ccc5[nH]4)ccc2[nH]1)CC3CCl` (stereo not shown) [Compound 53, N-(2-(8-(Chloromethyl)-4-hydroxy-2-methyl-7,8-dihydro-6H-oxazolo[4,5-e]indole-6-carbonyl)-1H-indol-5-yl)-5-(2-(dimethylamino)ethoxy)-1H-indole-2-carboxamide], the IC50 [2, 7] was 9 nM, the IC50 [2, 8] was 4.2 nM and the IC50 ([3]; 120 h, read-out: IC50 SiHa) was 7.2 nM. It also gave an IC50 ([3]; read-out: IC50 SiHa Average) of 2.9 nM.
With `COc1ccc(/C=C/C(=O)N2CC(CCl)c3c2cc(O)c2oc(C)nc32)cc1O` (stereo not shown) [Compound 59, (E)-1-(8-(Chloromethyl)-4-hydroxy-2-methyl-7,8-dihydro-6H-oxazolo[4,5-e]indol-6-yl)-3-(3-hydroxy-4-methoxyphenyl) prop-2-en-1-one] the “LogP ChemDraw Δ” value [1] was 1.48, the IC50 [2, 8] was 0.5 nM and the IC50 ([3]; read-out: IC50 SiHa Average) was 0.62 nM. For the same molecule, the “LogP ACD Δ” value [4] was 1.61.
In the case of `COc1ccc(/C=C/C(=O)Nc2ccc3[nH]c(C(=O)N4CC(CCl)c5c4cc(O)c4oc(C)nc54)cc3c2)cc1` (stereo not shown) [Compound 63, (E)-N-(2-(8-(Chloromethyl)-4-hydroxy-2-methyl-7,8-dihydro-6H-oxazolo[4,5-e]indole-6-carbonyl)-1H-indol-5-yl)-3-(4-methoxyphenyl)acrylamide], the IC50 [2, 8] is reported as 0.61 nM and the IC50 ([3]; read-out: IC50 SiHa Average) is reported as 0.69 nM.
For `COc1ccc2sc(C(=O)N3CC(CCl)c4c3cc(O)c3oc(C)nc43)cc2c1` (stereo not shown) [Compound 65, (8-(Chloromethyl)-4-hydroxy-2-methyl-7,8-dihydro-6H-oxazolo[4,5-e]indol-6-yl)(5-methoxybenzo[b]thiophen-2-yl)methanone], the IC50 [2, 8] was 1.7 nM and the IC50 ([3]; read-out: IC50 SiHa Average) was 2.7 nM.
With `COCCOc1ccc2[nH]c(C(=O)N3CC(CCl)c4c3cc(O)c3oc(C)nc43)cc2c1` (stereo not shown) [Compound 66, (8-(Chloromethyl)-4-hydroxy-2-methyl-7,8-dihydro-6H-oxazolo[4,5-e]indol-6-yl)(5-(2-methoxyethoxy)-1H-indol-2-yl)methanone] the “LogP ChemDraw Δ” value [1] was 1.48, the IC50 [2, 8] was 0.17 nM and the IC50 ([3]; read-out: IC50 SiHa Average) was 0.2 nM. For the same molecule, the “LogP ACD Δ” value [4] was 1.67.
`CC(=O)Nc1cnc2[nH]c(C(=O)N3CC(CCl)c4c3cc(O)c3oc(C)nc43)cc2c1` (stereo not shown) [Compound 70, N-(2-(8-(Chloromethyl)-4-hydroxy-2-methyl-7,8-dihydro-6H-oxazolo[4,5-e]indole-6-carbonyl)-1H-pyrrolo[2,3-b]pyridin-5-yl)acetamide] showed an IC50 [2, 8] greater than 20 nM and an IC50 ([3]; read-out: IC50 SiHa Average) greater than 20 nM.
In the case of `CC(=O)Nc1ccc2nc(C(=O)N3CC(CCl)c4c3cc(O)c3oc(C)nc43)cn2c1` (stereo not shown) [Compound 74, N-(2-(8-(Chloromethyl)-4-hydroxy-2-methyl-7,8-dihydro-6H-oxazolo[4,5-e]indole-6-carbonyl)imidazo[1,2-a]pyridin-6-yl)acetamide], the “LogP ChemDraw Δ” value [1] is reported as 1.48, the IC50 [2, 8] is reported as 16.4 nM and the IC50 ([3]; read-out: IC50 SiHa Average) is reported as 13 nM. The “LogP ACD Δ” value [4] was 1.66.
In the case of `COc1cc2cc(C(=O)N3C[C@@H](CCl)c4c3cc(O)c3oc(C)nc43)[nH]c2c(OC)c1OC` [Compound 82, (S)-(8-(Chloromethyl)-4-hydroxy-2-methyl-7,8-dihydro-6H-oxazolo[4,5-e]indol-6-yl)(5,6,7-trimethoxy-1H-indol-2-yl)methanone], the IC50 [2, 8] is reported as 0.3 nM, the “differential cytotoxic potency between enantiomers 82 and 83” value [2] is reported as 110 fold and the “differential cytotoxic potency between enantiomers 82 and 83” value [3] is reported as 93 fold. For the same molecule, the IC50 ([3]; read-out: IC50 SiHa Average) was 0.15 nM.
In the case of `COc1cc2cc(C(=O)N3C[C@H](CCl)c4c3cc(O)c3oc(C)nc43)[nH]c2c(OC)c1OC` [Compound 83, (R)-(8-(chloromethyl)-4-hydroxy-2-methyl-7,8-dihydro-6H-oxazolo[4,5-e]indol-6-yl)(5,6,7-trimethoxy-1H-indol-2-yl)methanone], the IC50 [2, 8] is reported as 33 nM, the “differential cytotoxic potency between enantiomers 82 and 83” value [2] is reported as 110 fold and the “differential cytotoxic potency between enantiomers 82 and 83” value [3] is reported as 93 fold. For the same molecule, the IC50 ([3]; read-out: IC50 SiHa Average) was 14 nM.
Molecule `COc1cc2cc(C(=O)N3CC(CCl)c4c3cc(O)c3ccccc43)[nH]c2c(OC)c1OC` (stereo not shown) [Seco-CBI-TMI, reference compound] has an IC50 [2, 7] of 0.58 nM, an IC50 [2, 8] of 0.27 nM and an IC50 ([3]; 120 h, read-out: IC50 SiHa) of 0.23 nM. The IC50 ([3]; read-out: IC50 SiHa Average) was 0.16 nM and the “aqueous stability (LC-MS)” value [5] was “clean conversion to the cyclopropyl form (CBI-TMI), which was stable under these conditions; also recorded: prolonged stability”.
In the case of `COC(=O)c1nc2c(O)cc3c(c2o1)C(CCl)CN3C(=O)c1cc2cc(OC)c(OC)c(OC)c2[nH]1` (stereo not shown) [seco-COI-TMI], the “cytotoxicity relative to reference compounds / CBI analogues” value [6] is listed as “several hundred fold less cytotoxic”.
